Reference: US9808527B2, “Methods and compositions for treating HIV infections” (priority 2006, dated 2017)

What was measured:
[1] = test system: HIV-1ATV1μM; test: microbe, parasite or virus in culture; type: cell-based; conditions: for IC50: Human immunodeficiency virus 1, MT4, read-out: IC50 against HIV-1ATV1μM; for fold change of IC50, HIV-1ATV1μM: compared to wild-type HIV-1NL4-3
Description: (§1) Drug susceptibility assay. The susceptibility of HIV-1LAI, HIV-2EHO, HIV-2ROD, to various drugs and the cytotoxicity of those drugs was determined by using the MTT assay. Briefly, MT-2 cells (2×10^4/mL) were exposed to 100 TCID50s (50% tissue culture infectious doses) of HIV-1LAI, HIV-2EHO, or HIV-2ROD in the presence or absence of various concentrations of drugs in 96-well microculture plates and were incubated at 37° C. for 7 days. After 100 μL of the medium was removed from each well, 3-(4,5-dimethylthiazol-2-yl)-2,5-diphenyltetrazolium bromide (MTT) solution (10 μL, 7.5 mg/mL in phosphate-buffered saline) was added to each well in the plate, followed by incubation at 37° C. for 4 hours. […] All assays were performed in duplicate or triplicate. To determine the sensitivity of HIV-1Ba-L, HIV-1ERS104 pre, and clinical multi-drug-resistant HIV-1 isolates and different subtypes of HIV-1 isolates to drugs, phytohemagglutinin-activated peripheral blood mononuclear cells (PHA-PBMs; 10^6/mL) were exposed to 50 TCID50 (50% tissue infectious dose) of each HIV-1 isolate and cultured in the presence or absence of various concentrations of drugs in 10-fold serial dilutions in 96-well microtiter culture plates. To determine the drug susceptibility of certain laboratory HIV-1 strains (HIV-1NL4-3), MT-4 cells were used as target cells. MT-4 cells (10^5/mL) were exposed to 100 TCID50 of wild type HIV-1NL4-3 and PI-resistant HIV-1NL4-3 in the presence or absence of various concentrations of drugs and were incubated at 37° C. On day 7 of culture, the supernatant was harvested and the amount of p24 Gag protein was determined by using a fully automated chemiluminescent enzyme immunoassay system (Lumipulse F; Fujirebio Inc., Tokyo, Japan) (22). […] All assays were performed in duplicate or triplicate.
(§2) Generation of PI-resistant HIV-1 in vitro. MT-4 cells (10^5/mL) were exposed to HIV-1NL4-3 (500 TCID50) and cultured in the presence of various PIs at an initial concentration of its IC50 values. Viral replication was monitored by determination of the amount of p24 Gag produced by MT-4 cells. The culture supernatants were harvested on day 7 and used to infect fresh MT-4 cells for the next round of culture in the presence of increasing concentrations of each drug. […] Proviral DNA samples obtained from the lysates of infected cells were subjected to nucleotide sequencing. This drug selection procedure was carried out until the drug concentration reached 1 or 5 μM.

[2] = test system: HIV-1SQV5μM; test: microbe, parasite or virus in culture; type: cell-based; conditions: for IC50: Human immunodeficiency virus 1, MT4, read-out: IC50 against HIV-1SQV5μM; for fold change of IC50, HIV-1SQV5μM: compared to wild-type HIV-1NL4-3
Description: as §1, §2

[3] = test system: HIV-1NFV5μM; test: microbe, parasite or virus in culture; type: cell-based; conditions: for IC50: Human immunodeficiency virus 1, MT4, read-out: IC50 against HIV-1NFV5μM; for fold change of IC50, HIV-1NFV5μM: compared to wild-type HIV-1NL4-3
Description: as §1, §2

[4] = test system: HIV-1RTV5μM; test: microbe, parasite or virus in culture; type: cell-based; conditions: for IC50: Human immunodeficiency virus 1, MT4, read-out: IC50 against HIV-1RTV5μM; for fold change of IC50, HIV-1RTV5μM: compared to wild-type HIV-1NL4-3
Description: as §1, §2

[5] = test system: HIV-1APV5μM; test: microbe, parasite or virus in culture; type: cell-based; conditions: for IC50: Human immunodeficiency virus 1, MT4, read-out: IC50 against HIV-1APV5μM; for fold change of IC50, HIV-1APV5μM: compared to wild-type HIV-1NL4-3
Description: as §1, §2

[6] = test system: HIV-1LPV1μM; test: microbe, parasite or virus in culture; type: cell-based; conditions: for IC50: Human immunodeficiency virus 1, MT4, read-out: IC50 against HIV-1LPV1μM; for fold change of IC50, HIV-1LPV1μM: compared to wild-type HIV-1NL4-3
Description: as §1, §2

[7] = test system: HIV-1IDV5μM; test: microbe, parasite or virus in culture; type: cell-based; conditions: for IC50: Human immunodeficiency virus 1, MT4, read-out: IC50 against HIV-1IDV5μM; for fold change of IC50, HIV-1IDV5μM: compared to wild-type HIV-1NL4-3
Description: as §1, §2

[8] = test system: HIV-1GRL98065r-40P; test: microbe, parasite or virus in culture; type: cell-based; conditions: for IC50: Human immunodeficiency virus 1, MT4, read-out: IC50 against HIV-1GRL98065r-40P; for fold change of IC50, HIV-1GRL98065r-40P: compared to HIV-1NL4-3
Description: Drug susceptibility assay. The susceptibility of HIV-1LAI, HIV-2EHO, HIV-2ROD, to various drugs and the cytotoxicity of those drugs was determined by using the MTT assay. Briefly, MT-2 cells (2×10^4/mL) were exposed to 100 TCID50s (50% tissue culture infectious doses) of HIV-1LAI, HIV-2EHO, or HIV-2ROD in the presence or absence of various concentrations of drugs in 96-well microculture plates and were incubated at 37° C. for 7 days. After 100 μL of the medium was removed from each well, 3-(4,5-dimethylthiazol-2-yl)-2,5-diphenyltetrazolium bromide (MTT) solution (10 μL, 7.5 mg/mL in phosphate-buffered saline) was added to each well in the plate, followed by incubation at 37° C. for 4 hours. […] All assays were performed in duplicate or triplicate. To determine the sensitivity of HIV-1Ba-L, HIV-1ERS104 pre, and clinical multi-drug-resistant HIV-1 isolates and different subtypes of HIV-1 isolates to drugs, phytohemagglutinin-activated peripheral blood mononuclear cells (PHA-PBMs; 10^6/mL) were exposed to 50 TCID50 (50% tissue infectious dose) of each HIV-1 isolate and cultured in the presence or absence of various concentrations of drugs in 10-fold serial dilutions in 96-well microtiter culture plates. To determine the drug susceptibility of certain laboratory HIV-1 strains (HIV-1NL4-3), MT-4 cells were used as target cells. MT-4 cells (10^5/mL) were exposed to 100 TCID50 of wild type HIV-1NL4-3 and PI-resistant HIV-1NL4-3 in the presence or absence of various concentrations of drugs and were incubated at 37° C. On day 7 of culture, the supernatant was harvested and the amount of p24 Gag protein was determined by using a fully automated chemiluminescent enzyme immunoassay system (Lumipulse F; Fujirebio Inc., Tokyo, Japan) (22). […] All assays were performed in duplicate or triplicate. […]

[9] = test system: 92UG037 (A-R5); test: p24 Gag production inhibition, PHA-PBMs, subtype A isolate 92UG037; type: cell-based, HIV-1; conditions: Human immunodeficiency virus 1, read-out: IC50 against 92UG037 (A-R5)
Description: as §1
The IC50 values were determined by using PHA-PBMs as target cells and the inhibition of p24 Gag protein production by each drug was used as an endpoint.

[10] = test system: HIV-1NL4-3; test: In vitro selection of HIV-1 variants resistant to GRL-98065; type: cell-based
Description: as §2
The protease-encoding region of the proviral DNA isolated from infected MT-4 cells was cloned and sequenced at passages 5, 10, 15, 20, 25, 30, 33, and 40. […] Met46 is located on the flap region of the enzyme.

SMILES	IC50 [1]	IC50 [2]	IC50 [3]	IC50 [4]	IC50 [5]	IC50 [6]	IC50 [7]	IC50 [8]	fold change of IC50, HIV-1ATV1μM [1]	fold change of IC50, HIV-1SQV5μM [2]	fold change of IC50, HIV-1NFV5μM [3]	fold change of IC50, HIV-1RTV5μM [4]	fold change of IC50, HIV-1APV5μM [5]	fold change of IC50, HIV-1LPV1μM [6]	fold change of IC50, HIV-1IDV5μM [7]	fold change of IC50, HIV-1GRL98065r-40P [8]	IC50 [9]	fold increase of drug concentration tolerated by selected virus ([10]; 40 passages in MT-4 cells, start 0.0005 μM)	drug concentration at which selected virus was still propagating ([10]; after 40 passages in MT-4 cells)
CC(C)CN(C[C@@H](O)[C@H](Cc1ccccc1)NC(=O)O[C@H]1CCOC1)S(=O)(=O)c1ccc(N)cc1 [APV, Amprenavir]	200 ± 70 nM	330 ± 30 nM	60 ± 4 nM	280 ± 20 nM	> 1000 nM	310 ± 20 nM	170 ± 10 nM	> 1000 nM	–	–	–	–	–	–	–	–	–	–	–
COC(=O)N[C@H](C(=O)N[C@@H](Cc1ccccc1)[C@@H](O)CN(Cc1ccc(-c2ccccn2)cc1)NC(=O)[C@@H](NC(=O)OC)C(C)(C)C)C(C)(C)C [ATV, Atazanavir]	330 nM	326 ± 1 nM	21 ± 6 nM	18 ± 8 nM	3 ± 1 nM	40 ± 2 nM	60 ± 20 nM	11 nM	79	78	5	4	1	10	14	3	2.5 ± 0.2 nM	–	–
CC(C)CN(CC(O)C(Cc1ccccc1)NC(=O)OC1COC2OCCC12)S(=O)(=O)c1ccc2c(c1)OCO2 (centres unmarked) [GRL-98065]	1.5 ± 0.9 nM	6 ± 3 nM	2.4 ± 0.8 nM	2.5 ± 0.3 nM	32 nM	7.5 ± 0.3 nM	3.7 ± 0.7 nM	180 nM	5	20	8	8	107	25	12	600	0.4 ± 0.1 nM	1,000	0.5 µM
CC(C)(C)NC(=O)[C@@H]1CN(Cc2cccnc2)CCN1C[C@@H](O)C[C@@H](Cc1ccccc1)C(=O)N[C@H]1c2ccccc2C[C@H]1O [IDV, indinavir]	388 ± 1 nM	> 1000 nM	270 ± 50 nM	250 ± 10 nM	200 ± 7 nM	> 1000 nM	> 1000 nM	280 nM	–	–	–	–	–	–	–	–	–	–	–
Cc1c(O)cccc1C(=O)N[C@@H](CSc1ccccc1)[C@H](O)CN1C[C@H]2CCCC[C@H]2C[C@H]1C(=O)NC(C)(C)C [NFV, Nelfinavir]	–	–	–	–	–	–	–	–	–	–	–	–	–	–	–	–	56 ± 14 nM	–	–
CC(C)c1nc(CN(C)C(=O)N[C@H](C(=O)N[C@@H](Cc2ccccc2)C[C@H](O)[C@H](Cc2ccccc2)NC(=O)OCc2cncs2)C(C)C)cs1 [RTV, ritonavir]	–	–	–	–	–	–	–	–	–	–	–	–	–	–	–	–	41 ± 8 nM	–	–
CC(C)(C)NC(=O)[C@@H]1C[C@@H]2CCCC[C@@H]2CN1C[C@@H](O)[C@H](Cc1ccccc1)NC(=O)[C@H](CC(N)=O)NC(=O)c1ccc2ccccc2n1 [SQV, Saquinavir]	37 ± 4 nM	> 1000 nM	24 ± 8 nM	10 ± 8 nM	31 ± 4 nM	32 ± 2 nM	59 ± 4 nM	32 nM	5	> 143	3	1	4	5	8	5	3.2 ± 0.3 nM	–	–
